PMC8881077 (Journal of Enzyme Inhibition and Medicinal Chemistry, 2022)

How the values were obtained:
ratAChE = molecular target: T1, ratAChE (Rattus norvegicus, UniProt P37136); test: biochemical; details: for SI: Selectivity Index = IC50 (BuChE)/IC50 (AChE), rat enzymes; for IC50: from 5% rat cortex homogenate, read-out: IC50 ± SD ratAChE
T1 construct: AChE from 5% rat cortex homogenate or human erythrocytes (Sigma Co.); from tissue; host or cells: 5% rat cortex homogenate
T1 sequence (P37136 32-614): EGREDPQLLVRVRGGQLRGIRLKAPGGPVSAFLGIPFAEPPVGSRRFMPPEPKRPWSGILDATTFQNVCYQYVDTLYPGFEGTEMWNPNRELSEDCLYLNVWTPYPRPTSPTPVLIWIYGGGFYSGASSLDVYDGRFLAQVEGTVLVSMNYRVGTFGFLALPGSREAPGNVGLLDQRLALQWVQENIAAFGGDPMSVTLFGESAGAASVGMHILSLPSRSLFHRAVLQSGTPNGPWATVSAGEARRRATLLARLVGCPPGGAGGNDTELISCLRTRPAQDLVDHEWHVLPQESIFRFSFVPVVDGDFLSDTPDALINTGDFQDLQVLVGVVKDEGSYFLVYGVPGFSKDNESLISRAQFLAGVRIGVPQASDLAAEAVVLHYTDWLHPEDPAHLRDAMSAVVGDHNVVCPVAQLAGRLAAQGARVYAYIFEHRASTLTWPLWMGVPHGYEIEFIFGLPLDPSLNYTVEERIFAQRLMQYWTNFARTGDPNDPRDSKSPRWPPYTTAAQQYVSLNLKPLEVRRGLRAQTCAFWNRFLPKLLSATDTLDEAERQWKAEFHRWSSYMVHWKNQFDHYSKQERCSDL
Method: (§1) The AChE and BuChE inhibitory activities of the synthesised compounds were evaluated using the Ellman assay with slight modification. AChE from 5% rat cortex homogenate or human erythrocytes (Sigma Co.). BuChE from rat serum or human serum (Sigma Co.).

[1] = Trolox as standard
Method: The skeleton compounds naringenin and apigenin were also evaluated for comparison purposes, and vitamin E analogue Trolox was used as a standard.
The antioxidant potency of target compounds was tested using an oxygen radical absorbance capacity fluorescein (ORAC-FL) assay.

ratBuChE = molecular target: T2, ratBuChE (Rattus norvegicus, UniProt Q9JKC1); test: ratBuChE inhibition, modified Ellman's method; assay type: biochemical
T2 construct: BuChE from rat serum or human serum (Sigma Co.); from tissue; host or cells: rat serum
T2 sequence (Q9JKC1 24-597): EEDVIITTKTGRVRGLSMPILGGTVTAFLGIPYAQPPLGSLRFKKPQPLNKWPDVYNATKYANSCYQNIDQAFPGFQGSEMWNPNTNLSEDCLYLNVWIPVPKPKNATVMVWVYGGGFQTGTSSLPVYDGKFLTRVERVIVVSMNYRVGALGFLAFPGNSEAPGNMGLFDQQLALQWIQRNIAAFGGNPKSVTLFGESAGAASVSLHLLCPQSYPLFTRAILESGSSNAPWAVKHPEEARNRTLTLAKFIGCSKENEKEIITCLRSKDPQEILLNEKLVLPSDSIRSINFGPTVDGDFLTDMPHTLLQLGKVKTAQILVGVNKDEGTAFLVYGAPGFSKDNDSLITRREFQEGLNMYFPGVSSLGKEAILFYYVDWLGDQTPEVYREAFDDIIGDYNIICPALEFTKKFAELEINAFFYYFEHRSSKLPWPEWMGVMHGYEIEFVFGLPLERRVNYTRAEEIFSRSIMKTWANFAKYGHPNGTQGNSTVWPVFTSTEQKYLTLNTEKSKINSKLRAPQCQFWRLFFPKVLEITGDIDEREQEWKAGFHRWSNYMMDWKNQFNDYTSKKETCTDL
Method: as §1

SMILES | SI (ratAChE) | IC50 (ratAChE) [µM] | ORAC [1] | IC50 (ratBuChE) [µM]
O=C1CC(c2ccc(O)cc2)Oc2cc(OCCCCN3CCCCC3)cc(O)c21 (centres unmarked) [Compound 5a, 5-hydroxy-2–(4-hydroxyphenyl)-7–(4-(piperidin-1-yl)butoxy)chroman-4-one] | 3.1 | 6.7 ± 0.31 | 2.2 ± 0.03 μM of Trolox equivalent/μM of tested compound | 20.9 ± 0.68
O=C1CC(c2ccc(O)cc2)Oc2cc(OCCCCN3CCc4ccccc4C3)cc(O)c21 (centres unmarked) [Compound 5b, 7–(4-(3,4-dihydroisoquinolin-2(1H)-yl)butoxy)-5-hydroxy-2–(4-hydroxyphenyl)chroman-4-one] | 3.0 | 5.8 ± 0.19 | 2.1 ± 0.04 μM of Trolox equivalent/μM of tested compound | 17.4 ± 0.52
CCN(CCCCOc1cc(O)c2c(c1)OC(c1ccc(O)cc1)CC2=O)Cc1ccccc1 (centres unmarked) [Compound 5c, 7–(4-(benzyl(ethyl)amino)butoxy)-5-hydroxy-2–(4-hydroxyphenyl)chroman-4-one] | 5.8 | 3.9 ± 0.44 | 2.3 ± 0.02 μM of Trolox equivalent/μM of tested compound | 22.6 ± 0.23
CCN(CCCCOc1cc(O)c2c(c1)OC(c1ccc(O)cc1)CC2=O)Cc1ccccc1OC (centres unmarked) [Compound 5d, 7–(4-(ethyl(2-methoxybenzyl)amino)butoxy)-5-hydroxy-2–(4-hydroxyphenyl)chroman-4-one] | 9.1 | 2 ± 0.46 | 2.2 ± 0.02 μM of Trolox equivalent/μM of tested compound | 18.1 ± 0.56
O=C1CC(c2ccc(O)cc2)Oc2cc(OCCCCN3CCN(Cc4ccccc4)CC3)cc(O)c21 (centres unmarked) [Compound 5e, 7–(4-(4-benzylpiperazin-1-yl)butoxy)-5-hydroxy-2–(4-hydroxyphenyl)chroman-4-one] | 1.4 | 9.2 ± 0.72 | 2.5 ± 0.01 μM of Trolox equivalent/μM of tested compound | 13.2 ± 0.43
O=C1CC(c2ccc(O)cc2)Oc2cc(OCCCCCN3CCC(Cc4ccccc4)CC3)cc(O)c21 (centres unmarked) [Compound 5g, 7-((5–(4-benzylpiperidin-1-yl)pentyl)oxy)-5-hydroxy-2–(4-hydroxyphenyl)chroman-4-one] | 7.5 | 2.5 ± 0.33 | 2.1 ± 0.02 μM of Trolox equivalent/μM of tested compound | 18.7 ± 0.33
CCN(CCCCCCOc1cc(O)c2c(c1)OC(c1ccc(O)cc1)CC2=O)Cc1ccccc1 (centres unmarked) [Compound 5h, 7-((6-(benzyl(ethyl)amino)hexyl)oxy)-5-hydroxy-2–(4-hydroxyphenyl)chroman-4-one] | 4.7 | 3.3 ± 0.09 | 2.3 ± 0.03 μM of Trolox equivalent/μM of tested compound | 15.5 ± 0.52
CCN(CCCCCCCCCCOc1cc(O)c2c(c1)OC(c1ccc(O)cc1)CC2=O)Cc1ccccc1 (centres unmarked) [Compound 5i, 7-((10-(benzyl(ethyl)amino)decyl)oxy)-5-hydroxy-2–(4-hydroxyphenyl)chroman-4-one] | 3.0 | 4.9 ± 0.16 | 2.1 ± 0.04 μM of Trolox equivalent/μM of tested compound | 14.7 ± 0.62
CCN(CCCCCCCCCCCCOc1cc(O)c2c(c1)OC(c1ccc(O)cc1)CC2=O)Cc1ccccc1 (centres unmarked) [Compound 5j, 7-((12-(benzyl(ethyl)amino)dodecyl)oxy)-5-hydroxy-2–(4-hydroxyphenyl)chroman-4-one] | – | 6.5 ± 0.09 | 2.2 ± 0.05 μM of Trolox equivalent/μM of tested compound | 15.9 ± 0.37
O=C1CC(c2ccc(OCCCN3CCc4ccccc4C3)cc2)Oc2cc(OCCCN3CCc4ccccc4C3)cc(O)c21 (centres unmarked) [Compound 7a, 7–(3-(3,4-dihydroisoquinolin-2(1H)-yl)propoxy)-2–(4-(3–(3,4-dihydroisoquinolin-2(1H)-yl)propoxy)phenyl)-5-hydroxychroman-4-one] | 2.0 | 10.1 ± 0.41 | 1.1 ± 0.02 μM of Trolox equivalent/μM of tested compound | 20.2 ± 0.23
CCN(CCCOc1ccc(C2CC(=O)c3c(O)cc(OCCCN(CC)Cc4ccccc4)cc3O2)cc1)Cc1ccccc1 (centres unmarked) [Compound 7b, 7–(3-(benzyl(ethyl)amino)propoxy)-2–(4-(3-(benzyl(ethyl)amino)propoxy)phenyl)-5-hydroxychroman-4-one] | 2.5 | 7.4 ± 0.29 | 1.2 ± 0.04 μM of Trolox equivalent/μM of tested compound | 18.7 ± 0.37
O=C1CC(c2ccc(OCCCN3CCC(Cc4ccccc4)CC3)cc2)Oc2cc(OCCCN3CCC(Cc4ccccc4)CC3)cc(O)c21 (centres unmarked) [Compound 7c, 7–(3-(4-benzylpiperidin-1-yl)propoxy)-2–(4-(3–(4-benzylpiperidin-1-yl)propoxy)phenyl)-5-hydroxychroman-4-one] | 2.9 | 6.7 ± 0.16 | 1.2 ± 0.02 μM of Trolox equivalent/μM of tested compound | 19.4 ± 0.28
O=C1CC(c2ccc(OCCCN3CCC(c4ccccc4)CC3)cc2)Oc2cc(OCCCN3CCC(c4ccccc4)CC3)cc(O)c21 (centres unmarked) [Compound 7d, 5-hydroxy-7–(3-(4-phenylpiperidin-1-yl)propoxy)-2–(4-(3–(4-phenylpiperidin-1-yl)propoxy)phenyl)chroman-4-one] | 2.2 | 9.3 ± 0.37 | 1.0 ± 0.03 μM of Trolox equivalent/μM of tested compound | 20.3 ± 0.26
CCN1CCN(CCCOc2ccc(C3CC(=O)c4c(O)cc(OCCCN5CCN(CC)CC5)cc4O3)cc2)CC1 (centres unmarked) [Compound 7e, 7–(3-(4-ethylpiperazin-1-yl)propoxy)-2–(4-(3–(4-ethylpiperazin-1-yl)propoxy)phenyl)-5-hydroxychroman-4-one] | 1.9 | 8.2 ± 0.47 | 1.5 ± 0.02 μM of Trolox equivalent/μM of tested compound | 15.8 ± 0.62
O=C1CC(c2ccc(OCCCCN3CCc4ccccc4C3)cc2)Oc2cc(OCCCCN3CCc4ccccc4C3)cc(O)c21 (centres unmarked) [Compound 7f, 7–(4-(3,4-dihydroisoquinolin-2(1H)-yl)butoxy)-2–(4-(4–(3,4-dihydroisoquinolin-2(1H)-yl)butoxy)phenyl)-5-hydroxychroman-4-one] | 3.8 | 5.4 ± 0.16 | 1.1 ± 0.03 μM of Trolox equivalent/μM of tested compound | 20.7 ± 0.55
CCN(CCCCOc1ccc(C2CC(=O)c3c(O)cc(OCCCCN(CC)Cc4ccccc4)cc3O2)cc1)Cc1ccccc1 (centres unmarked) [Compound 7g] | 11.2 | 1.4 ± 0.08 | 1.2 ± 0.04 μM of Trolox equivalent/μM of tested compound | 15.7 ± 0.29
CCN(CCCCOc1ccc(C2CC(=O)c3c(O)cc(OCCCCN(CC)Cc4ccccc4OC)cc3O2)cc1)Cc1ccccc1OC (centres unmarked) [Compound 7h, 7–(4-(ethyl(2-methoxybenzyl)amino)butoxy)-2–(4-(4-(ethyl(2-methoxybenzyl)amino)butoxy)phenyl)-5-hydroxychroman-4-one] | 19.7 | 0.86 ± 0.05 | 1.0 ± 0.04 μM of Trolox equivalent/μM of tested compound | 16.9 ± 0.34
O=C1CC(c2ccc(OCCCCN3CCN(Cc4ccccc4)CC3)cc2)Oc2cc(OCCCCN3CCN(Cc4ccccc4)CC3)cc(O)c21 (centres unmarked) [Compound 7i, 7–(4-(4-benzylpiperazin-1-yl)butoxy)-2–(4–(4-(4-benzylpiperazin-1-yl)butoxy)phenyl)-5-hydroxychroman-4-one] | 2.0 | 6.1 ± 0.21 | 1.4 ± 0.03 μM of Trolox equivalent/μM of tested compound | 12.3 ± 0.16
O=C1CC(c2ccc(OCCCCN3CCC(Cc4ccccc4)CC3)cc2)Oc2cc(OCCCCN3CCC(Cc4ccccc4)CC3)cc(O)c21 (centres unmarked) [Compound 7j] | 11.2 | 1.3 | 1.1 ± 0.03 μM of Trolox equivalent/μM of tested compound | –
CCN(CCCCCCOc1ccc(C2CC(=O)c3c(O)cc(OCCCCCCN(CC)Cc4ccccc4)cc3O2)cc1)Cc1ccccc1 (centres unmarked) [Compound 7l] | 6.9 | 2.2 ± 0.13 | 1.2 ± 0.01 μM of Trolox equivalent/μM of tested compound | 15.1 ± 0.28
O=c1cc(-c2ccc(OCCCN3CCc4ccccc4C3)cc2)oc2cc(OCCCN3CCc4ccccc4C3)cc(O)c12 [Compound 10a, 7–(3-(3,4-dihydroisoquinolin-2(1H)-yl)propoxy)-2–(4-(3–(3,4-dihydroisoquinolin-2(1H)-yl)propoxy)phenyl)-5-hydroxy-4H-chromen-4-one] | 2.1 | 8.1 ± 0.27 | 1.1 ± 0.01 μM of Trolox equivalent/μM of tested compound | 16.8 ± 0.36
CCN(CCCOc1ccc(-c2cc(=O)c3c(O)cc(OCCCN(CC)Cc4ccccc4)cc3o2)cc1)Cc1ccccc1 [Compound 10b, 7–(3-(benzyl(ethyl)amino)propoxy)-2–(4-(3-(benzyl(ethyl)amino)propoxy)phenyl)-5-hydroxy-4H-chromen-4-one] | 4.3 | 4.3 ± 0.38 | 1.0 ± 0.04 μM of Trolox equivalent/μM of tested compound | 18.6 ± 0.24
